US10004730B2, “Small molecules targeting androgen receptor nuclear localization and/or level in prostate cancer” (University of Pittsburgh-Of the Commonwealth System of …, priority 2011, dated 2018)

Key:
[1] = molecular target: T1, GFP-AR (Homo sapiens, UniProt P10275); assay: Localization of transiently transfected GFP-AR by fluorescence microscopy; type: cell-based; conditions: transfected C4-2 cells, complete RPMI with 10% FBS, overnight treatment
T1 construct: expressed in transfected cells; also PC3 and LNCaP (transient)
T1 sequence (P10275 1-920): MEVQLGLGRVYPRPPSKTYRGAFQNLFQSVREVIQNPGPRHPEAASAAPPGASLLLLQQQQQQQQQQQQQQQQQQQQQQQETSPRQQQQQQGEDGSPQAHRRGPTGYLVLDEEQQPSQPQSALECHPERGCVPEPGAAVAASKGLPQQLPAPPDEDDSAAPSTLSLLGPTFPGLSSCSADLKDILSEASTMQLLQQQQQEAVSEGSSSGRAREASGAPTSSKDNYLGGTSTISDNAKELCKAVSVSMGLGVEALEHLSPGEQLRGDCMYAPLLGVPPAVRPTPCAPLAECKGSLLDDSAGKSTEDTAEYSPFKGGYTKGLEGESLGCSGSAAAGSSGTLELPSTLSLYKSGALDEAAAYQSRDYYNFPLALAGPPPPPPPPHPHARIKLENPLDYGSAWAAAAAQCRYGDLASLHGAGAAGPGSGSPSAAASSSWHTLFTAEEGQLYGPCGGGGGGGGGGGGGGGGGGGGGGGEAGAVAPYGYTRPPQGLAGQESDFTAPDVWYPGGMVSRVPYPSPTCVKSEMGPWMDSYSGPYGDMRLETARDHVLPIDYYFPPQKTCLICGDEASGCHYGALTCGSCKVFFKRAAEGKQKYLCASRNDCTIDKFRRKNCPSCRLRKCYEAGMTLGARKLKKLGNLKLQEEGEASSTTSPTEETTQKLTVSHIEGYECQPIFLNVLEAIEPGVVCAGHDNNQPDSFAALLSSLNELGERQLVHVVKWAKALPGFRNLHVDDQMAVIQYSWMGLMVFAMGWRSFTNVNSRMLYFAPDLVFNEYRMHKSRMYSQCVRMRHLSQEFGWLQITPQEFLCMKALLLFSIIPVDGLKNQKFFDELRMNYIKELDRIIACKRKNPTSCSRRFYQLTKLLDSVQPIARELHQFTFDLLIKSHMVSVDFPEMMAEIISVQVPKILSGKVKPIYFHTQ
Experimental: FIGS. 2A and 2B. Localization of GFP-AR in AR-negative PC3, androgen-sensitive LNCaP, and CRPC C4-2 cells. […] PC3, LNCaP, and C4-2 cells were transfected with GFP-AR and localization was assessed in ligand-free conditions or in the presence of mibolerone by fluorescence microscopy within 24 hours of transfection. The results in FIG. 2B are from five transfections for each cell line in the absence of androgen. At least 50 cells were counted after each transfection. Error bars represent ±SEM.
FIGS. 3A and 3B. […] FIG. 3A. […] Localization was assessed by fluorescence microscopy 4 hours after treatment. FIG. 3B.
FIGS. 6A, 6B, 6C and 6D. FIG. 6A. […] FIG. 6B. […] C4-2 cells were transfected with GFP-AR and subcellular localization of GFP-AR was determined after overnight treatment using fluorescent microscopy. FIG. 6C. Quantitative analysis of results in FIG. 6B. […] FIG. 6D. […] Endogenous AR was detected by immunofluorescent staining using AR antibody N-20 (Santa Cruz Biotechnology). Nuclei were stained with Hoechst.
A prerequisite for AR transcriptional activity is its nuclear localization. To determine whether the subcellular localization of AR was altered during the progression to castration-resistance, AR-negative PC3 prostate cancer cells, androgen-sensitive LNCaP cells and castration-resistant C4-2 cells were transfected with AR tagged to green fluorescent protein (GFP) and localization was assessed by fluorescence microscopy in hormone-free conditions.
Hsp90 plays an important role in ligand-induced AR nuclear translocation. […] To determine if the effect of hsp90 inhibition on endogenous AR in C4-2 cells was similar to its effect on transfected GFP-AR, immunofluorescence experiments were performed.

[2] = Pilot toxicity experiment in mice; type: in vivo; conditions: all doses tested, highest 100 mg/kg; data not shown
Experimental: […]. […] A pilot experiment was also performed testing the toxicity of SID 3712502 in mice.

[3] = tested on: AR transactivation of PSA-luciferase reporter; assay: PSA-luciferase reporter, full-length AR, C4-2 cells; type: cell-based; conditions: 24 hours
Experimental: FIGS. 13A-C. Effect of SID 3712502 on the expression of AR and PSA in 22Rv1 (FIG. 13A) cells. […] The cells in RPMI 1640 complete medium were treated with SID 3712502 or vehicle DMSO at the indicated concentrations (uM) for 48 h. The cells were then harvested in RIPA buffer for Western blot analysis using antibodies for AR, PSA, and GAPDH. GAPDH was included as a loading control. FIG. 13B. SID 3712502 inhibits AR transactivation of PSA-luciferase reporter. C4-2 cells were transfected with PSA6.1-Luc, GFP-AR, and pRL-CMV and then treated with indicated doses of SID 3712502 for 24 hours. FIG. 13C. SID 3712502 inhibits transactivation of PSA-luciferase reporter by AR(1-665), which lacks LBD. PC3 cells were transfected with GFP-NAR and PSA6.1 Luc overnight prior to treatment with 10 μM SID 3712502 (SID) or DMSO (C) for 24 hours. For luciferase assays, cells were lysed with passive lysis buffer (Promega) and both Firefly and Renilla luciferase activities were read using a Dual-Luciferase Reporter Assay kit (Promega) on a LmaxII384 luminometer (Molecular Devices). Firefly luciferase values were normalized to Renilla (pRL-CMV) or protein of cell lysates. Plotted values represent averaged normalized Firefly luciferase activities, each performed in triplicate, relative to DMSO control. One-way ANOVA was performed with a Bonferroni's Multiple Comparison posttest *** p<0.0001 (C). […]

[4] = tested on: DU145 cells; assay: BrdU incorporation, DU145; type: cell-based; conditions: DU145, up to 50 uM, 48 hrs
Experimental: FIGS. 14A-F. Effect of SID 3712502 at indicated concentrations on BrdU incorporation in cultured AR-positive LNCaP (FIG. 14A), C4-2 (FIG. 14B), 22Rv1 (FIG. 14C), LAPC4 (FIG. 14D) cells, and AR-negative DU145 (FIG. 14E) and PC3 (FIG. 14F) cells. Cells were plated in 12-well plates at 2,500 cell per well in RPMI 1640 complete medium. After 24 hrs, the cells were treated with SID 3712502 at the indicated concentrations for 48 hrs and BrdU incorporation was assayed according to manufacturer's instructions (Invitrogen BrdU staining kit; catalog #: 93-3943). The percentage of BrdU-positive cells was determined and then normalized to generate relative BrdU index. Ctrl=DMSO control.

For `Cc1cccc(N2CCN(C(=O)CSCc3c(C)noc3C)CC2)c1C` [SID 3712502, 2-[(3,5-dimethyl-1,2-oxazol-4-yl)methylsulfanyl]-1-[4-(2,3-dimethylphenyl)piperazin-1-yl]ethanone], the GFP-AR nuclear localization [1] was “effectively inhibited”, the toxicity in mice [2] was “no identifiable effect” and the “transactivation activity of full-length AR (PSA-luciferase)” value [3] was “can inhibit the transactivation activity”. The “proliferation (BrdU incorporation)” value [4] was “no detectable effect”.
